PubChem BioAssay AID1963870 (Molecular Pharmacology Branch, DTP, NCI, 2024)

System: 292921-168-R-J2-PDC KRAS tumor spheroid viability
Assay: Anticancer human tumor 292921-168-R-J2-PDC patient-derived pancreatic carcinoma cell line growth inhibition [KRAS2]
Settings: spheroids with HUVEC and MSC; for IC50: curve of first compound; for viability, T/C: stronger effect = lower value
Outline: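 KRAS-mutant tumor cells were grown as spheroids with HUVEC endothelial cells and human MSCs as stroma. Targeted agents were tested alone and with KRAS pathway inhibitors. Doses started at or near clinical Cmax, or 10 microM, descending half-log.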

[1] = second compound 0.1 µM, first compound 0.000316 µM
[2] = second compound 0.1 µM, first compound 0.001 µM
[3] = second compound 0.1 µM, first compound 0.00316 µM
[4] = second compound 0.1 µM, first compound 0.01 µM
[5] = second compound 0.1 µM, first compound 0.0316 µM
[6] = second compound 0.316 µM, first compound 0.000316 µM
[7] = second compound 0.316 µM, first compound 0.001 µM
[8] = second compound 0.316 µM, first compound 0.00316 µM
[9] = second compound 0.316 µM, first compound 0.01 µM
[10] = second compound 0.316 µM, first compound 0.0316 µM
[11] = second compound 1 µM, first compound 0.000316 µM
[12] = second compound 1 µM, first compound 0.001 µM
[13] = second compound 1 µM, first compound 0.00316 µM
[14] = second compound 1 µM, first compound 0.01 µM
[15] = second compound 1 µM, first compound 0.0316 µM
[16] = second compound 3.16 µM, first compound 0.000316 µM
[17] = second compound 3.16 µM, first compound 0.001 µM
[18] = second compound 3.16 µM, first compound 0.00316 µM
[19] = second compound 3.16 µM, first compound 0.01 µM
[20] = second compound 3.16 µM, first compound 0.0316 µM
[21] = second compound 10 µM, first compound 0.0316 µM
[22] = second compound 0.1 µM, first compound 0.1 µM
[23] = second compound 0.316 µM, first compound 0.1 µM
[24] = second compound 1 µM, first compound 0.1 µM
[25] = second compound 3.16 µM, first compound 0.1 µM
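Note: drug exposure lasted seven days after spheroids formed for three days.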
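Throughout, for viability, T/C: percent of DMSO vehicle control viability which is 100%.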

CC(=O)Nc1cccc(-n2c(=O)n(C3CC3)c(=O)c3c(Nc4ccc(I)cc4F)n(C)c(=O)c(C)c32)c1 + C=CC(=O)N1CCN(c2nc(=O)n(-c3c(C)ccnc3C(C)C)c3nc(-c4c(O)cccc4F)c(F)cc23)C(C)C1
IC50 (second compound 0.1 µM): 0.34 nM | IC50 (second compound 0.316 µM): 0.468 nM | IC50 (second compound 1 µM): 0.395 nM | IC50 (second compound 3.16 µM): 0.235 nM | IC50 (second compound 10 µM): < 0.1 nM | viability, T/C (second compound 0.1 µM, first compound 0.0001 µM): 90% | viability, T/C [1]: 51.6% | viability, T/C [2]: 27.4% | viability, T/C [3]: 18.7% | viability, T/C [4]: 12.8% | viability, T/C [5]: 7.68% | viability, T/C (second compound 0.316 µM, first compound 0.0001 µM): 92% | viability, T/C [6]: 60.1% | viability, T/C [7]: 30.3% | viability, T/C [8]: 18.9% | viability, T/C [9]: 11.9% | viability, T/C [10]: 7.86% | viability, T/C (second compound 1 µM, first compound 0.0001 µM): 86.9% | viability, T/C [11]: 54.4% | viability, T/C [12]: 31.9% | viability, T/C [13]: 19.6% | viability, T/C [14]: 12.1% | viability, T/C [15]: 8.24% | viability, T/C (second compound 3.16 µM, first compound 0.0001 µM): 62.1% | viability, T/C [16]: 46.4% | viability, T/C [17]: 26.8% | viability, T/C [18]: 17.5% | viability, T/C [19]: 11.5% | viability, T/C [20]: 9.06% | viability, T/C (second compound 10 µM, first compound 0.0001 µM): 23% | viability, T/C (second compound 10 µM, first compound 0.000316 µM): 19.9% | viability, T/C (second compound 10 µM, first compound 0.001 µM): 10.9% | viability, T/C (second compound 10 µM, first compound 0.00316 µM): 11.7% | viability, T/C (second compound 10 µM, first compound 0.01 µM): 9.79% | viability, T/C [21]: 9.65%

CC1OCC2(CCN(c3cnc(Sc4ccnc(N)c4Cl)c(N)n3)CC2)C1N (stereo not given) + C=CC(=O)N1CCN(c2nc(=O)n(-c3c(C)ccnc3C(C)C)c3nc(-c4c(O)cccc4F)c(F)cc23)C(C)C1
IC50 (second compound 0.1 µM): 1140 nM | IC50 (second compound 0.316 µM): 1920 nM | IC50 (second compound 1 µM): 2060 nM | IC50 (second compound 3.16 µM): 218 nM | IC50 (second compound 10 µM): < 31.6 nM | viability, T/C [5]: 96.8% | viability, T/C [22]: 83.1% | viability, T/C (second compound 0.1 µM, first compound 0.316 µM): 64.5% | viability, T/C (second compound 0.1 µM, first compound 1 µM): 51% | viability, T/C (second compound 0.1 µM, first compound 3.16 µM): 42% | viability, T/C (second compound 0.1 µM, first compound 10 µM): 33.4% | viability, T/C [10]: 108% | viability, T/C [23]: 82.5% | viability, T/C (second compound 0.316 µM, first compound 0.316 µM): 69.2% | viability, T/C (second compound 0.316 µM, first compound 1 µM): 59.9% | viability, T/C (second compound 0.316 µM, first compound 3.16 µM): 45.6% | viability, T/C (second compound 0.316 µM, first compound 10 µM): 34.2% | viability, T/C [15]: 104% | viability, T/C [24]: 89.9% | viability, T/C (second compound 1 µM, first compound 0.316 µM): 73.5% | viability, T/C (second compound 1 µM, first compound 1 µM): 55.5% | viability, T/C (second compound 1 µM, first compound 3.16 µM): 46.6% | viability, T/C (second compound 1 µM, first compound 10 µM): 41.1% | viability, T/C [20]: 65.2% | viability, T/C [25]: 57.6% | viability, T/C (second compound 3.16 µM, first compound 0.316 µM): 45.9% | viability, T/C (second compound 3.16 µM, first compound 1 µM): 39% | viability, T/C (second compound 3.16 µM, first compound 3.16 µM): 36.7% | viability, T/C (second compound 3.16 µM, first compound 10 µM): 29.6% | viability, T/C [21]: 17.8% | viability, T/C (second compound 10 µM, first compound 0.1 µM): 15.9% | viability, T/C (second compound 10 µM, first compound 0.316 µM): 16.3% | viability, T/C (second compound 10 µM, first compound 1 µM): 15.5% | viability, T/C (second compound 10 µM, first compound 3.16 µM): 15.1% | viability, T/C (second compound 10 µM, first compound 10 µM): 14.4%

CN(C)C/C=C/C(=O)Nc1cc2c(Nc3ccc(F)c(Cl)c3)ncnc2cc1O[C@H]1CCOC1 + C=CC(=O)N1CCN(c2nc(OCC3CCCN3C)nc3c2CCN(c2cccc4cccc(C)c24)C3)CC1CC#N
IC50 (second compound 0.0316 µM): > 100 nM | IC50 (second compound 0.1 µM): > 100 nM | IC50 (second compound 0.316 µM): > 100 nM | IC50 (second compound 1 µM): 9.38 nM | IC50 (second compound 3.16 µM): < 0.316 nM | viability, T/C (second compound 0.0316 µM, first compound 0.000316 µM): 110% | viability, T/C (second compound 0.0316 µM, first compound 0.001 µM): 97.6% | viability, T/C (second compound 0.0316 µM, first compound 0.00316 µM): 89.9% | viability, T/C (second compound 0.0316 µM, first compound 0.01 µM): 85.3% | viability, T/C (second compound 0.0316 µM, first compound 0.0316 µM): 76.9% | viability, T/C (second compound 0.0316 µM, first compound 0.1 µM): 71.9% | viability, T/C [1]: 99.2% | viability, T/C [2]: 98.1% | viability, T/C [3]: 85.3% | viability, T/C [4]: 84.8% | viability, T/C [5]: 71.4% | viability, T/C [22]: 68.2% | viability, T/C [6]: 77.3% | viability, T/C [7]: 85.3% | viability, T/C [8]: 64.7% | viability, T/C [9]: 60.5% | viability, T/C [10]: 61.6% | viability, T/C [23]: 49.3% | viability, T/C [11]: 56.8% | viability, T/C [12]: 60% | viability, T/C [13]: 50.3% | viability, T/C [14]: 49.5% | viability, T/C [15]: 45.5% | viability, T/C [24]: 34.8% | viability, T/C [16]: 0.73% | viability, T/C [17]: 1.26% | viability, T/C [18]: 0.25% | viability, T/C [19]: 0.27% | viability, T/C [20]: 0.43% | viability, T/C [25]: 0.2%
